Consider 28 molecules from US20250186437A1, “CARBOLINE COMPOUNDS AND USE THEREOF” (PTC Therapeutics, Inc., priority 2021, published 2025).

The experiment deals with MOLM-13 cells. The experiment in a line: MOLM-13 Cell Proliferation Assay (indicator of DHODH inhibition). The experiment is classed as cell-based. As to conditions: Homo sapiens, 72 Hours of culture, CellTiter-Glo, no uridine. The procedure, abridged: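 Low-passage MOLM-13 cells (10^4/well) in RPMI 1640 + 10% FBS exposed to compound (0.5% DMSO final) for 72 h at 37 °C, 5% CO2. Viability read by CellTiter-Glo luminescence; growth reflects de novo pyrimidine synthesis dependent on DHODH.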

For orientation: IC50 means the concentration that inhibits the measured activity by half. The low end stands for higher potency, the high end for lower potency.

The molecule `Fc1cnc(N2CCc3c([nH]c4ccc(Cl)cc34)C2c2ccc(N3CCOCC3)nc2)nc1` (stereo not shown) [Compound 382, 6-chloro-2-(5-fluoropyrimidin-2-yl)-1-[6-(morpholin-4-yl)pyridin-3-yl]-2,3,4,9-tetrahydro-1H-pyrido[3,4-b]indole] had an IC50 of 13.4 nM.

In the case of `FC(F)(F)c1cc(C(F)(F)F)nc(N2CCc3c([nH]c4ccc(Br)cc34)[C@@H]2c2ccc(N3CCOCC3)nc2)n1` [Compound 487, (1S)-2-[4,6-bis(trifluoromethyl)pyrimidin-2-yl]-6-bromo-1-[6-(morpholin-4-yl)pyridin-3-yl]-2,3,4,9-tetrahydro-1H-pyrido[3,4-b]indole], the half-maximal inhibitory concentration (IC50) worked out at 0.2 nM. This IC50 is about 67-fold lower than that of the molecule before. For `Cc1ccnc(N2CCc3c([nH]c4ccc(Cl)c(F)c34)C2c2ccc(/C=C/CCO)cc2)n1` (stereo not shown) [Compound 237, (3E)-4-{4-[6-chloro-5-fluoro-2-(4-methylpyrimidin-2-yl)-2,3,4,9-tetrahydro-1H-pyrido[3,4-b]indol-1-yl]phenyl}but-3-en-1-ol], the IC50 turned out to be 4.7 nM. Under `Cc1ccc(C2c3[nH]c4cc(F)c(Cl)cc4c3CCN2c2nc(Cl)cc(N(C)C)n2)cc1` (stereo not shown) [Cpd 17, 6-chloro-2-[6-chloro-7-fluoro-1-(4-methylphenyl)-1,3,4,9-tetrahydro-2H-pyrido[3,4-b]indol-2-yl]-N,N-dimethylpyrimidin-4-amine] stands 18.4 nM. Under `CN(C)c1ccc(C2c3[nH]c4cc(F)c(Cl)cc4c3CCN2c2nccc(C(F)(F)F)n2)c(F)n1` (stereo not shown) [Compound 208, 5-{6-chloro-7-fluoro-2-[4-(trifluoromethyl)pyrimidin-2-yl]-2,3,4,9-tetrahydro-1H-pyrido[3,4-b]indol-1-yl}-6-fluoro-N,N-dimethylpyridin-2-amine] stands 2.2 nM.

Molecule `Cc1ccc([C@H]2c3[nH]c4ccc(Cl)cc4c3CCN2c2ncnc(C#N)n2)cc1` [Compound 399, 4-[(1S)-6-chloro-1-(4-methylphenyl)-1,3,4,9-tetrahydro-2H-pyrido[3,4-b]indol-2-yl]-1,3,5-triazine-2-carbonitrile] registered an IC50 of 11.2 nM. Under `FC(F)(F)c1ccnc(N2CCc3c([nH]c4ccc(Cl)cc34)C2c2ccc(Cl)cc2)n1` (stereo not shown) [Compound 349, 6-chloro-1-(4-chlorophenyl)-2-[4-(trifluoromethyl)pyrimidin-2-yl]-2,3,4,9-tetrahydro-1H-pyrido[3,4-b]indole] stands 3 nM; under `Cc1ccc(C2c3[nH]c4cc(F)c(Cl)cc4c3CCN2c2ncc(F)c(C)n2)cc1` (stereo not shown) [Compound 123, 6-chloro-7-fluoro-2-(5-fluoro-4-methylpyrimidin-2-yl)-1-(4-methylphenyl)-2,3,4,9-tetrahydro-1H-pyrido[3,4-b]indole], 12.1 nM. Under `Cc1nc(C)nc(N2CCc3c([nH]c4ccc(N(C)C)cc34)C2c2cnc(N3CCOCC3)nc2)n1` (stereo not shown) [Compound 331, 2-(4,6-dimethyl-1,3,5-triazin-2-yl)-N,N-dimethyl-1-[2-(morpholin-4-yl)pyrimidin-5-yl]-2,3,4,9-tetrahydro-1H-pyrido[3,4-b]indol-6-amine] stands 102 nM. The molecule `Fc1cc2[nH]c3c(c2cc1Cl)CCN(c1ncccn1)C3c1ccc(C2CC2)cc1` (stereo not shown) [Compound 45, 6-chloro-1-(4-cyclopropylphenyl)-7-fluoro-2-(pyrimidin-2-yl)-2,3,4,9-tetrahydro-1H-pyrido[3,4-b]indole] came in with an IC50 of 32.2 nM. Under `Cc1ccc(C2c3[nH]c4cc(F)c(Cl)cc4c3CCN2c2nc(C)c(F)c(C)n2)cc1` (stereo not shown) [Cpd 106, 6-chloro-7-fluoro-2-(5-fluoro-4,6-dimethylpyrimidin-2-yl)-1-(4-methylphenyl)-2,3,4,9-tetrahydro-1H-pyrido[3,4-b]indole] stands 7.4 nM.

As to `Cc1ccc(C2c3[nH]c4cc(F)c(Cl)cc4c3CCN2c2ncc(F)cn2)cc1` (stereo not shown) [Compound 6, 6-chloro-7-fluoro-2-(5-fluoropyrimidin-2-yl)-1-(4-methylphenyl)-2,3,4,9-tetrahydro-1H-pyrido[3,4-b]indole], the midpoint of inhibition, the IC50, lay at 37.6 nM. Under `CN1CCN(c2ncc([C@H]3c4[nH]c5ccc(Cl)cc5c4CCN3c3nc(N4CCOCC4)nc(C(F)(F)F)n3)cn2)CC1` [Compound 509, (1S)-6-chloro-1-[2-(4-methylpiperazin-1-yl)pyrimidin-5-yl]-2-[4-(morpholin-4-yl)-6-(trifluoromethyl)-1,3,5-triazin-2-yl]-2,3,4,9-tetrahydro-1H-pyrido[3,4-b]indole] stands 8.1 nM; under `Cc1ccc([C@H]2c3[nH]c4ccc(Cl)cc4c3CCN2c2nc(C)c(F)c(C#N)n2)cc1` [Compound 417, 2-[(1S)-6-chloro-1-(4-methylphenyl)-1,3,4,9-tetrahydro-2H-pyrido[3,4-b]indol-2-yl]-5-fluoro-6-methylpyrimidine-4-carbonitrile], 1.9 nM; under `CN(C)c1ccc(C2c3[nH]c4ccc(Cl)c(F)c4c3CCN2c2nccc(C(F)(F)F)n2)c(F)n1` (stereo not shown) [Compound 210, 5-{6-chloro-5-fluoro-2-[4-(trifluoromethyl)pyrimidin-2-yl]-2,3,4,9-tetrahydro-1H-pyrido[3,4-b]indol-1-yl}-6-fluoro-N,N-dimethylpyridin-2-amine], 1.9 nM. Under `CN1CCN(c2nc(N3CCc4c([nH]c5ccc(Cl)cc45)[C@@H]3c3cnc(N4CCOCC4)nc3)nc(C(F)(F)F)n2)CC1` [Compound 478, (1S)-6-chloro-2-[4-(4-methylpiperazin-1-yl)-6-(trifluoromethyl)-1,3,5-triazin-2-yl]-1-[2-(morpholin-4-yl)pyrimidin-5-yl]-2,3,4,9-tetrahydro-1H-pyrido[3,4-b]indole] stands 9.5 nM; under `Cc1ccc([C@H]2c3[nH]c4ccc(Cl)cc4c3CCN2c2nc(N3CCOCC3)nc(C(F)(F)F)n2)cc1` [Compound 442, (1S)-6-chloro-1-(4-methylphenyl)-2-[4-(morpholin-4-yl)-6-(trifluoromethyl)-1,3,5-triazin-2-yl]-2,3,4,9-tetrahydro-1H-pyrido[3,4-b]indole], 3.4 nM; under `CC1(C)CN(c2ncc([C@H]3c4[nH]c5ccc(Cl)cc5c4CCN3c3nc(C(F)(F)F)cc(C(F)(F)F)n3)cn2)CCN1` [Compound 496, (1S)-2-[4,6-bis(trifluoromethyl)pyrimidin-2-yl]-6-chloro-1-[2-(3,3-dimethylpiperazin-1-yl)pyrimidin-5-yl]-2,3,4,9-tetrahydro-1H-pyrido[3,4-b]indole], 2.8 nM. For `Cc1cnn(-c2ccc3[nH]c4c(c3c2)CCN(c2nc(C(F)(F)F)nc(C(F)(F)F)n2)[C@H]4c2ccc(C)c(F)c2F)c1` [Compound 529, (1S)-2-[4,6-bis(trifluoromethyl)-1,3,5-triazin-2-yl]-1-(2,3-difluoro-4-methylphenyl)-6-(4-methyl-1H-pyrazol-1-yl)-2,3,4,9-tetrahydro-1H-pyrido[3,4-b]indole] the value was 4.1 nM; for `CC(C)c1ccc(C2c3[nH]c4cc(F)c(Cl)cc4c3CCN2c2ncc(Cl)cn2)cc1` (stereo not shown) [Compound 57, 6-chloro-2-(5-chloropyrimidin-2-yl)-7-fluoro-1-[4-(propan-2-yl)phenyl]-2,3,4,9-tetrahydro-1H-pyrido[3,4-b]indole], 19.9 nM; for `Cc1ccc(C2c3[nH]c4ccc(Cl)c(F)c4c3CCN2c2ncc(F)c(C)n2)c(F)c1F` (stereo not shown) [Compound 114, 6-chloro-1-(2,3-difluoro-4-methylphenyl)-5-fluoro-2-(5-fluoro-4-methylpyrimidin-2-yl)-2,3,4,9-tetrahydro-1H-pyrido[3,4-b]indole], 1.1 nM. With `COc1nc(C)nc(N2CCc3c([nH]c4ccc(Cl)cc34)C2c2cnc(N3CCOCC3)nc2)n1` (stereo not shown) [Compound 295, 6-chloro-2-(4-methoxy-6-methyl-1,3,5-triazin-2-yl)-1-[2-(morpholin-4-yl)pyrimidin-5-yl]-2,3,4,9-tetrahydro-1H-pyrido[3,4-b]indole], inhibition was half-maximal at 14.7 nM (IC50). On to `Cc1ccc([C@H]2c3[nH]c4ccc(Cl)cc4c3CCN2c2ncc(F)cn2)c(F)c1F` [Compound 238, (1S)-6-chloro-1-(2,3-difluoro-4-methylphenyl)-2-(5-fluoropyrimidin-2-yl)-2,3,4,9-tetrahydro-1H-pyrido[3,4-b]indole], for which the IC50 amounted to 0.9 nM. Regarding `N#Cc1ccc(C2c3[nH]c4cc(F)c(Cl)cc4c3CCN2c2nccc(Cl)n2)cc1` (stereo not shown) [Compound 18, 4-[6-chloro-2-(4-chloropyrimidin-2-yl)-7-fluoro-2,3,4,9-tetrahydro-1H-pyrido[3,4-b]indol-1-yl]benzonitrile], the IC50 stood at 13.5 nM. For `FC(F)(F)c1nc(N2CCc3c([nH]c4ccc(Cl)cc34)C2c2ccc(N3CCOCC3)nc2)nc(C(F)(F)F)n1` (stereo not shown) [Compound 404, 2-[4,6-bis(trifluoromethyl)-1,3,5-triazin-2-yl]-6-chloro-1-[6-(morpholin-4-yl)pyridin-3-yl]-2,3,4,9-tetrahydro-1H-pyrido[3,4-b]indole] the value was 0.4 nM; for `Fc1cc2[nH]c3c(c2cc1Cl)CCN(c1nccc(C(F)(F)F)n1)C3c1ccc(C(F)(F)F)cc1` (stereo not shown) [Compound 75, 6-chloro-7-fluoro-1-[4-(trifluoromethyl)phenyl]-2-[4-(trifluoromethyl)pyrimidin-2-yl]-2,3,4,9-tetrahydro-1H-pyrido[3,4-b]indole], 12.5 nM; for `CN1CCN(c2ccc([C@H]3c4[nH]c5ccc(Cl)cc5c4CCN3c3nccc(C(F)(F)F)n3)cn2)CC1` [Compound 480, (1S)-6-chloro-1-[6-(4-methylpiperazin-1-yl)pyridin-3-yl]-2-[4-(trifluoromethyl)pyrimidin-2-yl]-2,3,4,9-tetrahydro-1H-pyrido[3,4-b]indole], 3.2 nM. Molecule `Cc1ccnc(N2CCc3c([nH]c4ccc(Cl)cc34)C2c2cnc(N3CCOCC3)nc2)n1` (stereo not shown) [Compound 312, 6-chloro-2-(4-methylpyrimidin-2-yl)-1-[2-(morpholin-4-yl)pyrimidin-5-yl]-2,3,4,9-tetrahydro-1H-pyrido[3,4-b]indole] had an IC50 of 7.4 nM.
